Reference: patent US20250326744A1, “PIPERAZINE DERIVATIVE OR SALT THEREOF, AND PHARMACEUTICAL COMPOSITION” (priority 2022, published 2025)
Structures can show the parent of a compound that is named as a salt.

Key:
[1] = tested on: mexB (PA) strain; assay: Combinational effect with antibacterial agent against Pseudomonas aeruginosa (Test Examples 2 and 4): mexB (PA) strain with LVFX, TC or AZT at 1/4 MIC, EC99; type: cell-based; conditions: for EC99, mexB (PA), AZT / EC99, mexB (PA), LVFX / EC99, mexB (PA), TC: Table 52, Test Example 2, 16 to 20 hours culture, OD595; for EC99, mexB (PA), AZT / EC99, combinational effect with AZT, mexB (PA): combined with AZT at 1/4 MIC; for EC99, mexB (PA), LVFX / EC99, combinational effect with LVFX, mexB (PA): combined with LVFX at 1/4 MIC; for EC99, mexB (PA), TC / EC99, combinational effect with TC, mexB (PA): combined with TC at 1/4 MIC; for EC99, combinational effect with AZT, mexB (PA) / EC99, combinational effect with LVFX, mexB (PA) / EC99, combinational effect with TC, mexB (PA): mexB (PA) strain, Test Example 4
Procedure, shortened: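 EC99 denotes the minimum test-compound concentration (range 0–800 μM) that suppresses ≥99% of growth, measured by OD595, when combined with ¼ MIC levofloxacin (LVFX), tetracycline or aztreonam. The efflux-pump mutant mexB (PA), expressing mainly MexAB-OprM, was inoculated at 10^4–5 CFU/well in CAMHB for 16–20 h.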

[2] = tested on: S-3769 strain; assay: Combinational effect with antibacterial agent against Pseudomonas aeruginosa (Test Examples 2 and 4): S-3769 strain with AMK or GM at 1/4 MIC, EC99; type: cell-based; conditions: for EC99, S-3769 strain, AMK / EC99, S-3769 strain, GM: Table 52, Test Example 2, 16 to 20 hours culture, OD595; for EC99, S-3769 strain, AMK / EC99, combinational effect with AMK, S-3769 strain: combined with AMK at 1/4 MIC; for EC99, S-3769 strain, GM / EC99, combinational effect with GM, S-3769 strain: combined with GM at 1/4 MIC; for EC99, combinational effect with AMK, S-3769 strain / EC99, combinational effect with GM, S-3769 strain: Test Example 4
Procedure, shortened: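 EC99, the lowest test-compound concentration inhibiting growth by ≥99% (OD595), was measured with aminoglycoside AMK or GM held at ¼ MIC. Strain S-3769, a MexY-overexpressing clinical isolate, was cultured in CAMHB at 10^4 to 5 CFU/well for 16–20 h; compound range 0–800 μM.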

Row | Structure (SMILES) | EC99, mexB (PA), AZT [1] | EC99, mexB (PA), LVFX [1] | EC99, mexB (PA), TC [1] | EC99, S-3769 strain, AMK [2] | EC99, S-3769 strain, GM [2] | EC99, combinational effect with AZT, mexB (PA) [1] | EC99, combinational effect with LVFX, mexB (PA) [1] | EC99, combinational effect with TC, mexB (PA) [1] | EC99, combinational effect with AMK, S-3769 strain [2] | EC99, combinational effect with GM, S-3769 strain [2]
1 | N[C@@H](C(=O)N1CCN(Cc2cccc3c2OC(F)(F)O3)CC1)C1CCN(CCc2cc(Cl)ccc2-c2ccccc2)CC1 [Example 24, Hydrobromide of (R)-2-amino-2-(1-(2-(4-chloro-[1,1′-biphenyl]-2-yl)ethyl)piperidin-4-yl)-1-(4-((2,2-difluorobenzo[d][1,3]dioxol-4-yl)methyl)piperazin-1-yl)ethan-1-one] | B (25 μM<EC99≤100 μM) | B (25 μM<EC99≤100 μM) | A (12.5 μM<EC99≤25 μM) | B (25 μM<EC99≤100 μM) | B (25 μM<EC99≤100 μM) |  |  |  |  | 
2 | N[C@@H](C(=O)N1CCN(CC2CCCCC2)CC1)C1CCN(CCc2cc(Cl)ccc2-c2ccccc2)CC1 [Example 526, Hydrobromide of (R)-2-amino-2-(1-(2-(4-chloro-[1,1-biphenyl]-2-yl)ethyl)piperidin-4-yl)-1-(4-(cyclohexylmethyl)piperazin-1-yl)ethan-1-one] |  |  |  |  |  | B (25 μM<EC99≤100 μM) | B (25 μM<EC99≤100 μM) | A (12.5 μM<EC99≤25 μM) | A (12.5 μM<EC99≤25 μM) | A (12.5 μM<EC99≤25 μM)
3 | N[C@@H](C(=O)N1CCN(Cc2c(F)cccc2OCC(F)F)CC1)C1CCN(CCc2cc(Cl)ccc2-c2ccccc2)CC1 [Example 18, Hydrobromide of (R)-2-amino-2-(1-(2-(4-chloro-[1,1′-biphenyl]-2-yl)ethyl)piperidin-4-yl)-1-(4-(2-(2,2-difluoroethoxy)-6-fluorobenzyl)piperazin-1-yl)ethan-1-one] | B (25 μM<EC99≤100 μM) | B (25 μM<EC99≤100 μM) | B (25 μM<EC99≤100 μM) | A (12.5 μM<EC99≤25 μM) | A (12.5 μM<EC99≤25 μM) |  |  |  |  | 
4 | CCOc1cccc(F)c1CN1CCN(C(=O)[C@H](N)C2CCN(CCc3cc(Cl)ccc3-c3cc(N)ccc3Cl)CC2)CC1 [Example 560, Hydrobromide of (R)-2-amino-2-(1-(2-(5′-amino-2′,4-dichloro-[1,1-biphenyl]-2-yl)ethyl)piperidin-4-yl)-1-(4-(2-ethoxy-6-fluorobenzyl)piperazin-1-yl)ethan-1-one] |  |  |  |  |  | S (EC99≤12.5 μM) | S (EC99≤12.5 μM) | S (EC99≤12.5 μM) | A (12.5 μM<EC99≤25 μM) | A (12.5 μM<EC99≤25 μM)
5 | CCOc1cccc(F)c1CN1CCN(C(=O)[C@H](N)C2CCN(CCc3cc(C)ccc3-c3ccccc3)CC2)CC1 [Example 81, Hydrobromide of (R)-2-amino-1-(4-(2-ethoxy-6-fluorobenzyl)piperazin-1-yl)-2-(1-(2-(4-methyl-[1,1′-biphenyl]-2-yl)ethyl)piperidin-4-yl)ethan-1-one] | B (25 μM<EC99≤100 μM) | B (25 μM<EC99≤100 μM) | B (25 μM<EC99≤100 μM) | S (EC99≤12.5 μM) | S (EC99≤12.5 μM) |  |  |  |  | 
6 | CCOc1cccc(F)c1CN1CCN(C(=O)[C@H](N)C2CCN(CCc3cc(Cl)ccc3-c3cn[nH]c3)CC2)CC1 [Example 502, Hydrobromide of (R)-2-amino-2-(1-(S-chloro-2-(1H-pyrazol-4-yl)phenethyl)piperidin-4-yl)-1-(4-(2-ethoxy-6-fluorobenzyl)piperazin-1-yl)ethan-1-one] |  |  |  |  |  | C (100 μM<EC99) | B (25 μM<EC99≤100 μM) | B (25 μM<EC99≤100 μM) | S (EC99≤12.5 μM) | S (EC99≤12.5 μM)
7 | CSc1ccccc1CN1CCN(C(=O)[C@H](N)C2CCN(CCc3cc(Cl)ccc3-c3cc(N)cc(F)c3)CC2)CC1 [Example 564, Hydrobromide of (R)-2-amino-2-(1-(2-(3′-amino-4-chloro-5′-fluoro-[1,1-biphenyl]-2-yl)ethyl)piperidin-4-yl)-1-(4-(2-(methylthio)benzyl)piperazin-1-yl)ethan-1-one] |  |  |  |  |  | S (EC99≤12.5 μM) | S (EC99≤12.5 μM) | S (EC99≤12.5 μM) | B (25 μM<EC99≤100 μM) | B (25 μM<EC99≤100 μM)
8 | CCOc1cccc(F)c1CN1CCN(C(=O)[C@H](N)C2CCN(CCc3cc(Cl)ccc3-c3ccccc3)CC2)CC1 [Example 137, (R)-2-amino-2-(1-(2-(4-chloro-[1,1′-biphenyl]-2-yl)ethyl)piperidin-4-yl)-1-(4-(2-ethoxy-6-fluorobenzyl)piperazin-1-yl)ethan-1-one] | S (EC99≤12.5 μM) | A (12.5 μM<EC99≤25 μM) | A (12.5 μM<EC99≤25 μM) | S (EC99≤12.5 μM) | S (EC99≤12.5 μM) |  |  |  |  | 
9 | N[C@@H](C(=O)N1CCN(Cc2cccc3c2OCC3)CC1)C1CCN(CCc2cc(Cl)ccc2-c2ccccc2)CC1 [Example 38, Hydrobromide of (R)-2-amino-2-(1-(2-(4-chloro-[1,1′-biphenyl]-2-yl)ethyl)piperidin-4-yl)-1-(4-((2,3-dihydrobenzofuran-7-yl)methyl)piperazin-1-yl)ethan-1-one] | A (12.5 μM<EC99≤25 μM) | C (100 μM<EC99) | B (25 μM<EC99≤100 μM) | A (12.5 μM<EC99≤25 μM) | A (12.5 μM<EC99≤25 μM) |  |  |  |  | 
10 | CCOc1cccc(F)c1CN1CCN(C(=O)[C@H](N)C2CCN(CCc3cc(Cl)ccc3C3=CCCNC3)CC2)CC1 [Example 88, Hydrobromide of (R)-2-amino-2-(1-(5-chloro-2-(1,2,5,6-tetrahydropyridin-3-yl)phenethyl)piperidin-4-yl)-1-(4-(2-ethoxy-6-fluorobenzyl)piperazin-1-yl) ethan-1-one] | C (100 μM<EC99) | C (100 μM<EC99) | B (25 μM<EC99≤100 μM) | S (EC99≤12.5 μM) | S (EC99≤12.5 μM) |  |  |  |  | 
